{"source": "patent US20230310465A1", "about": "“NANO LIPID CARRIER SYSTEM FOR IMPROVING PERMEATION OF ACTIVE INGREDIENTS” (LEIUTIS PHARMACEUTICALS LLP, priority 2020, published 2023)", "origin": "cited, not measured here", "settings": "from Akynezo, healthy subjects", "data": [{"molecule": "Cc1ccccc1-c1cc(N2CCN(C)CC2)ncc1N(C)C(=O)C(C)(C)c1cc(C(F)(F)F)cc(C(F)(F)F)c1", "note": "[Netupitant, 2-[3,5-bis(trifluoromethyl)phenyl]-N,2-dimethyl-N-[4-(2methylphenyl)-6-(4-methylpiperazin-1-yl)pyridin-3-yl]propenamide]", "values": [{"measurement": "Tmax", "value": "about 5 hrs"}]}]}
